Measurements as given in patent US10450301B2, “Apoptosis signal-regulating kinase 1 inhibitors and methods of use thereof” (ENANTA PHARMACEUTICALS, INC., priority 2017, dated 2019).

Target: ASK1 (Homo sapiens (Human), UniProt Q99683)
Assay: HTRF KinEASE Assay (TR-FRET, STK3 peptide substrate), inhibition of ASK1
Type: biochemical
Settings: 5 nM ASK1 kinase, 1 μM STK3 peptide substrate, 100 μM ATP, 3 hours; compound 0 to 10 μM
Protocol: Assay HTRF® KinEASE™ Assay
ASK1 was purchased from Thermofisher (Catalogue # PV4011), ATP was purchased from Sigma (Catalogue # A7699), HI-TRF® KinEASE™ Assay System was obtained from Cisbio (Bedford, Mass.). […] HTRF® KinEASE™-STK is a generic method for measuring serine/threonine kinase activities using a time-resolved fluorescence resonance energy transfer (TR-FRET) immunoassay. […] 100 Um ATP is added to start kinase reaction and incubated for 3 hours. The STK3-antibody labeled with Eu^3+-Cryptate and 125 Nm streptavidin-XL665 are mixed in a single addition with stop reagents provided by the Cisbio kit used to stop the kinase reaction. […] The resulting TR-FRET is proportional to the phosphorylation level. Staurosporine was used as the positive control. IC50 was determined by Xlfit 5.3.
By using above method, the inhibition of ASK1 was evaluated for the compounds of Formula (I).

Chain of ASK1 (Q99683 whole entry): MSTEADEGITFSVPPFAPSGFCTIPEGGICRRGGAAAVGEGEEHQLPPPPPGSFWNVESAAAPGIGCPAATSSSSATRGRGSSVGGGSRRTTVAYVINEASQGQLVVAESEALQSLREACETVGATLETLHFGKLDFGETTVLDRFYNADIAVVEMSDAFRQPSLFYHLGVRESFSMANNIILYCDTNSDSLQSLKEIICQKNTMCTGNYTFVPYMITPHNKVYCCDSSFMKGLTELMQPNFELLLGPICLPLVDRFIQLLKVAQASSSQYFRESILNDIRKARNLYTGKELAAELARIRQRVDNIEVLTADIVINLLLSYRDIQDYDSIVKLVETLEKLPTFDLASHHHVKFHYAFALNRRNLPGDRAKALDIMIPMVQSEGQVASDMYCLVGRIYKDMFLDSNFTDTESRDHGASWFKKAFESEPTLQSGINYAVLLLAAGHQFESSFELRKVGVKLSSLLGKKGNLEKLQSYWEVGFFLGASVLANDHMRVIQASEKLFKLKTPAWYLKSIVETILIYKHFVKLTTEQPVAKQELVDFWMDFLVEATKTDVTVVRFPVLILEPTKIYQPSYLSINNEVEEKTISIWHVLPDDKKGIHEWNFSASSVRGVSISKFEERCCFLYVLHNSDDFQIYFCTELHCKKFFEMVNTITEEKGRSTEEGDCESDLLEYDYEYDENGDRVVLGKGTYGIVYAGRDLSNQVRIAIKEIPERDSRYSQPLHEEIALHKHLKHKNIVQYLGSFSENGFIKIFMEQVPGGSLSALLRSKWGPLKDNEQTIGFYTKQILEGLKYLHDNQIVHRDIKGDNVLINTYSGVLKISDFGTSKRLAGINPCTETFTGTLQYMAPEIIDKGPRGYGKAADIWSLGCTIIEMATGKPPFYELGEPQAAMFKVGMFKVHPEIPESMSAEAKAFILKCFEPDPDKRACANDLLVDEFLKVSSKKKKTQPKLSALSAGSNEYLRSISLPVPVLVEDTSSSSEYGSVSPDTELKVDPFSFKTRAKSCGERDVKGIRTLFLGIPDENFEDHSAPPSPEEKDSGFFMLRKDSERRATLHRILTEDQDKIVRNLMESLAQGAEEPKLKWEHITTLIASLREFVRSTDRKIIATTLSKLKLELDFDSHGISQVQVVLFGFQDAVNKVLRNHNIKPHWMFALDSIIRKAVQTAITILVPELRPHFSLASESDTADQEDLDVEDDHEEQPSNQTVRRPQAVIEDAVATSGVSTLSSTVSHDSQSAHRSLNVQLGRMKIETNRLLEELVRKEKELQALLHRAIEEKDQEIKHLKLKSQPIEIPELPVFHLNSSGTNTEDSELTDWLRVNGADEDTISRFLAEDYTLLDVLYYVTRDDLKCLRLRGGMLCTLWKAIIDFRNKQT

Structure (SMILES) | IC50 [nM]
CC(C)n1cnnc1-c1cccc(NC(=O)c2cc3c(cc2F)CCN(S(=O)(=O)C2CCCC2)C3)n1 [Example 21] | 1 to 10
CCNS(=O)(=O)N1CCc2cc(F)c(C(=O)Nc3cccc(-c4nncn4C(C)C)n3)cc2C1 [Example 22] | 1 to 10
COCCS(=O)(=O)N1CCc2cc(F)c(C(=O)Nc3cccc(-c4nncn4C(C)C)n3)cc2C1 [Example 23] | 1 to 10
COCCC(=O)N1CCc2cc(F)c(C(=O)Nc3cccc(-c4nncn4C(C)C)n3)cc2C1 [Example 24, 6-fluoro-N-(6-(4-isopropyl-4H-1,2,4-triazol-3-yl)pyridin-2-yl)-2-(3-methoxypropanoyl)-1,2,3,4-tetrahydroisoquinoline-7-carboxamide] | 1 to 10
CC(C)n1cnnc1-c1cccc(NC(=O)c2cc3c(cc2F)CCN(C(=O)OC2CCCC2)C3)n1 [Example 25] | 1 to 10
CCOC(=O)N1CCc2cc(F)c(C(=O)Nc3cccc(-c4nncn4C(C)C)n3)cc2C1 [Example 26] | 1 to 10
CC(C)n1cnnc1-c1cccc(NC(=O)c2cc3c(cc2F)CCNC3)n1 [Example 27] | 10 to 100
COCCC(=O)N1CCc2cc(F)c(C(=O)Nc3cccc(-c4nnnn4C(C)C)n3)cc2C1 [Example 28] | 10 to 100
CCNC(=O)N1CCc2cc(F)c(C(=O)Nc3cccc(-c4nnnn4C(C)C)n3)cc2C1 [Example 29, N2-ethyl-6-fluoro-N7-(6-(1-isopropyl-1H-tetrazol-5-yl)pyridin-2-yl)-3,4-dihydroisoquinoline-2,7(1H)-dicarboxamide] | 1 to 10
CCOC(=O)N1CCc2cc(F)c(C(=O)Nc3cccc(-c4nnnn4C(C)C)n3)cc2C1 [Example 30] | 10 to 100
CC(C)n1nnnc1-c1cccc(NC(=O)c2cc3c(cc2F)CCN(C(=O)OCc2ccccc2)C3)n1 [Example 31] | 10 to 100
CC(C)n1cnnc1-c1cccc(NC(=O)c2ccc3c(c2)CN(C(=O)c2nccs2)CC3)n1 [Example 32] | 10 to 100
C=CCNC(=O)N1CCc2ccc(C(=O)Nc3cccc(-c4nncn4C(C)C)n3)cc2C1 [Example 33] | 10 to 100
CC(C)n1cnnc1-c1cccc(NC(=O)c2ccc3c(c2)CN(C(=O)OC2CCCC2)CC3)n1 [Example 34] | 10 to 100
CCCOC(=O)N1CCc2ccc(C(=O)Nc3cccc(-c4nncn4C(C)C)n3)cc2C1 [Example 35] | 10 to 100
CCOC(=O)N1CCc2ccc(C(=O)Nc3cccc(-c4nncn4C(C)C)n3)cc2C1 [Example 36] | 10 to 100
CC(C)n1cnnc1-c1cccc(NC(=O)c2ccc3c(c2)CNCC3)n1 [Example 37, N-(6-(4-isopropyl-4H-1,2,4-triazol-3-yl)pyridin-2-yl)-1,2,3,4-tetrahydroisoquinoline-7-carboxamide] | 100 to 1000
COCCCN1CCc2ccc(C(=O)Nc3cccc(-c4nncn4C(C)C)n3)cc2C1 [Example 38, N-(6-(4-isopropyl-4H-1,2,4-triazol-3-yl)pyridin-2-yl)-2-(3-methoxypropyl)-1,2,3,4-tetrahydroisoquinoline-7-carboxamide] | 100 to 1000
C=CCN1CCc2ccc(C(=O)Nc3cccc(-c4nncn4C(C)C)n3)cc2C1 [Example 39, 2-allyl-N-(6-(4-isopropyl-4H-1,2,4-triazol-3-yl)pyridin-2-yl)-1,2,3,4-tetrahydroisoquinoline-7-carboxamide] | 100 to 1000

Structure (SMILES) | IC50 [nM]
CC(C)n1nnnc1-c1cccc(NC(=O)c2cc3c(cc2F)CCN(S(=O)(=O)CCC(F)(F)F)C3)n1 [Example 40] | 10 to 100
CCN(CC)C(=O)N1CCc2cc(F)c(C(=O)Nc3cccc(-c4nncn4C(C)C)n3)cc2C1 [Example 41] | 1 to 10
CC(C)CS(=O)(=O)N1CCc2cc(F)c(C(=O)Nc3cccc(-c4nncn4C(C)C)n3)cc2C1 [Example 42] | 1 to 10
CC(C)n1cnnc1-c1cccc(NC(=O)c2cc3c(cc2F)CCN(S(=O)(=O)CC2CC2)C3)n1 [Example 43] | 10 to 100
CC(C)n1cnnc1-c1cccc(NC(=O)c2cc3c(cc2F)CCN(C(=O)N2CCCC2)C3)n1 [Example 44] | 1 to 10
CCN(C)C(=O)N1CCc2cc(F)c(C(=O)Nc3cccc(-c4nncn4C(C)C)n3)cc2C1 [Example 45] | 1 to 10
CC(C)n1cnnc1-c1cccc(NC(=O)c2cc3c(cc2F)CCN(S(=O)(=O)CCC(F)(F)F)C3)n1 [Example 46] | 1 to 10
CC(C)n1cnnc1-c1cccc(NC(=O)c2cc3c(cc2F)CCN(S(=O)(=O)C2CC2)C3)n1 [Example 47] | 1 to 10
CC(C)n1cnnc1-c1cccc(NC(=O)c2cc3c(cc2F)CCN(C(=O)N(C)C)C3)n1 [Example 48] | 1 to 10
CC(C)n1cnnc1-c1cccc(NC(=O)c2cc3c(cc2F)CCN(S(=O)(=O)N(C)C)C3)n1 [Example 49] | 1 to 10
CC(C)n1cnnc1-c1cccc(NC(=O)c2cc3c(cc2F)CCN(C(=O)N2CCOCC2)C3)n1 [Example 50] | 10 to 100
CC(C)n1cnnc1-c1cccc(NC(=O)c2cc3c(cc2F)CCN(C(=O)NC2CCCC2)C3)n1 [Example 51] | 1 to 10
CCNC(=O)N1CCc2cc(F)c(C(=O)Nc3cccc(-c4nncn4C(C)C)n3)cc2C1 [Example 52] | 1 to 10
CC(C)n1cnnc1-c1cccc(NC(=O)c2cc3c(cc2F)CCN(C(=O)OCc2ccccc2)C3)n1 [Example 53, benzyl 6-fluoro-7-((6-(4-isopropyl-4H-1,2,4-triazol-3-yl)pyridin-2-yl)carbamoyl)-3,4-dihydroisoquinoline-2(1H)-carboxylate] | 10 to 100
CC(C)n1nnnc1-c1cccc(NC(=O)c2cc3c(cc2F)CCN(c2ccccc2)C3)n1 [Example 54, 6-fluoro-N-(6-(1-isopropyl-1H-tetrazol-5-yl)pyridin-2-yl)-2-phenyl-1,2,3,4-tetrahydroisoquinoline-7-carboxamide] | 10 to 100
COCCS(=O)(=O)N1CCc2cc(F)c(C(=O)Nc3cccc(-c4nnnn4C(C)C)n3)cc2C1 [Example 55] | 10 to 100
CC(C)n1nnnc1-c1cccc(NC(=O)c2cc3c(cc2F)CCN(C(=O)NC2CCCC2)C3)n1 [Example 56] | 10 to 100
CC(C)n1nnnc1-c1cccc(NC(=O)c2cc3c(cc2F)CCN(C(=O)OC2CCCC2)C3)n1 [Example 57] | 10 to 100
CC(C)n1nnnc1-c1cccc(NC(=O)c2cc3c(cc2F)CCNC3)n1 [Example 58] | 100 to 1000

Structure (SMILES) | IC50 [nM]
C=CCOC(=O)N1CCc2ccc(C(=O)Nc3cccc(-c4nncn4C(C)C)n3)cc2C1 [Example 59, allyl 7-((6-(4-isopropyl-4H-1,2,4-triazol-3-yl)pyridin-2-yl)carbamoyl)-3,4-dihydroisoquinoline-2(1H)-carboxylate] | 10 to 100
COCCC(=O)N1CCc2ccc(C(=O)Nc3cccc(-c4nncn4C(C)C)n3)cc2C1 [Example 60] | 10 to 100
CC(C)n1cnnc1-c1cccc(NC(=O)c2ccc3c(c2)CN(C(=O)NC2CCCC2)CC3)n1 [Example 61] | 10 to 100
CCCCNC(=O)N1CCc2ccc(C(=O)Nc3cccc(-c4nncn4C(C)C)n3)cc2C1 [Example 62] | 1 to 10
CCNC(=O)N1CCc2ccc(C(=O)Nc3cccc(-c4nncn4C(C)C)n3)cc2C1 [Example 63] | 1 to 10
C=CCCOC(=O)N1CCc2ccc(C(=O)Nc3cccc(-c4nncn4C(C)C)n3)cc2C1 [Example 64] | 10 to 100
CC(C)n1cnnc1-c1cccc(NC(=O)c2ccc3c(c2)CN(C(=O)OCCF)CC3)n1 [Example 65] | 10 to 100
CC(C)COC(=O)N1CCc2ccc(C(=O)Nc3cccc(-c4nncn4C(C)C)n3)cc2C1 [Example 66] | 10 to 100
CC(C)n1cnnc1-c1cccc(NC(=O)c2ccc3c(c2)CN(C(=O)OCc2ccccc2)CC3)n1 [Example 67, benzyl 7-((6-(4-isopropyl-4H-1,2,4-triazol-3-yl)pyridin-2-yl)carbamoyl)-3,4-dihydroisoquinoline-2(1H)-carboxylate] | 10 to 100
CC1NCCc2cc(F)c(C(=O)Nc3cccc(-c4nnnn4C(C)C)n3)cc21 (centres unmarked) [Example 68, 6-fluoro-N-(6-(1-isopropyl-1H-tetrazol-5-yl)pyridin-2-yl)-1-methyl-1,2,3,4-tetrahydroiso-quinoline-7-carboxamide] | 100 to 1000
CC1c2cc(C(=O)Nc3cccc(-c4nnnn4C(C)C)n3)c(F)cc2CCN1C(=O)N1CCCC1 (centres unmarked) [Example 69] | 10 to 100
CC1c2cc(C(=O)Nc3cccc(-c4nnnn4C(C)C)n3)c(F)cc2CCN1S(=O)(=O)CCC(F)(F)F (centres unmarked) [Example 70] | 10 to 100
CC(C)c1nnnn1-c1cccc(NC(=O)c2cc3c(cc2F)CCNC3)n1 [Example 71] | > 1000
CC(=O)OC[C@@H](C)n1nnnc1-c1cccc(NC(=O)c2cc3c(cc2F)CCN(C(=O)N(C)CC(F)(F)F)C3)n1 [Example 72] | > 1000
CC(=O)OC[C@@H](C)n1nnnc1-c1cccc(NC(=O)c2cc3c(cc2F)CCN(C(=O)N2CCCC2)C3)n1 [Example 73] | > 1000
CC1c2cc(C(=O)Nc3cccc(-c4nnnn4C(C)C)n3)c(F)cc2CCN1C(=O)OCc1ccccc1 (centres unmarked) [Example 74, benzyl 6-fluoro-7-((6-(1-isopropyl-1H-tetrazol-5-yl)pyridin-2-yl)carbamoyl)-1-methyl-3,4-dihydroisoquinoline-2(1H)-carboxylate] | 100 to 1000
C[C@H](CO)n1nnnc1-c1cccc(NC(=O)c2cc3c(cc2F)CCN(C(=O)N(C)CC(F)(F)F)C3)n1 [Example 75, (R)-6-fluoro-N7-(6-(1-(1-hydroxypropan-2-yl)-1H-tetrazol-5-yl)pyridin-2-yl)-N2-methyl-N2-(2,2,2-trifluoroethyl)-3,4-dihydroisoquinoline-2,7(1H)-dicarboxamide] | 10 to 100
C[C@H](CO)n1nnnc1-c1cccc(NC(=O)c2cc3c(cc2F)CCN(C(=O)N2CCCC2)C3)n1 [Example 76] | 1 to 10
